Read-outs that look alike come from different tables or passages of the source.
Experiments:
Type in all cases: physicochemical
[1] = Hydration screen (acetone/water mixtures of various water activities); conditions: ambient
Description: Hydration screen was carried out as follows: 10 mg of prepared salts were suspended in several acetone/water mixtures of various water activities (low: aw=0.281, medium: aw=0.776 and high: aw=0.919) and agitated at ambient temperatures for 24 hr. Any recovered solids were submitted for XRPD analysis to determine any changes to form.

[2] = 1 week stability tests (40° C./75% RH, 80° C., ambient light; XRPD and UPLC)
[3] = Thermodynamic solubility; conditions: for solubility thermodynamic at 24 h: thermodynamic from solid, ambient temperature, read-out: Concentration (thermodynamic solubility)
Description: Thermodynamic solubility studies were carried out as follows: 10 mg of prepared salts were suspended in pH 1, 4.5, 6.8 and un-buffered water (300 μL). The pH of the slurries was measured and adjusted accordingly using either 0.2M HCl solution or 0.2M sodium hydroxide solution. The slurries were agitated for 24 hours at ambient temperature using an incubator shaker.

[4] = Salt stability studies (40° C./75% RH for 1 week, XRPD)
Description: Recovered salts were placed in an oven at 40° C./75% RH for 1 week, and the resultant materials were analyzed by XRPD to determine any changes to form or crystallinity.

[5] = Salt disproportionation studies; conditions: deionized water, 24 h, ambient temperature
Description: Salt disproportionation studies were carried out as follows: 20 mg of prepared salts were weighed into a vial and 0.5 mL of deionized water was added. The samples were then agitated for 24 h at ambient temperature. The pH of the samples was taken pre- and post-agitation. Any solids recovered were submitted for XRPD analysis to determine any changes to form.

[6] = Dynamic vapor sorption (DVS); conditions: for hygroscopicity by DVS (in words): DVS humidity conditions; for change in crystalline form after exposure to DVS conditions (post-DVS XRPD): after DVS cycle; for mass uptake (DVS): at 90% RH
Description: Approximately, 10 mg of sample was placed into a mesh vapor sorption balance pan and loaded into a DVS-1 dynamic vapor sorption balance by Surface Measurement Systems. The sample was subjected to a ramping profile from 40-90% relative humidity (RH) at 10% increments, maintaining the sample at each step until a stable weight had been achieved (99.5% step completion). After completion of the sorption cycle, the sample was dried using the same procedure to 0% RH and then a second sorption cycle back to 40% RH. The weight change during the sorption/desorption cycles were plotted, allowing for the hygroscopic nature of the sample to be determined. XRPD analysis was then carried out on any solid retained.

[7] = Gravimetric vapor sorption (GVS)
Description: Approximately 10-20 mg of sample was placed into a mesh vapor sorption balance pan and loaded into an IGASorp Moisture Sorption Analyzer balance by Hiden Analytical. […] After completion of the sorption cycle, the sample was dried using the same procedure to 0% RH, and finally taken back to the starting point of 40% RH. The weight change during the sorption/desorption cycles were plotted, allowing for the hygroscopic nature of the sample to be determined.

[8] = high water activity aw=0.919, 24 hr
[9] = low water activity aw=0.281, 24 hr
[10] = pH 6.8 potassium phosphate buffer, aqueous buffer, pH 6.8 buffer
[11] = simulated gastric fluid, pH 1 buffer
[12] = medium water activity aw=0.776, 24 hr

Which results are given for `C[C@@H]1CCc2ncc(F)cc2[C@H]2CCCN2c2ccn3ncc(c3n2)C(=O)N1.O=S(=O)(O)c1ccccc1` [Compound 1 besylate]?
solid recovered from hydration screen (XRPD) [1, 8]: poorly crystalline besylate salt; solid recovered from hydration screen (XRPD) [1, 9]: poorly crystalline besylate salt; change to form after 1 week stability test (XRPD) ([2]; 40° C./75% RH): a mixture of besylate salt and something else; change in purity after 1 week stability test (UPLC) ([2]; 80° C.): no change to purity; change to form after 1 week stability test (XRPD) ([2]; 80° C.): no change to form; change in purity after 1 week stability test (UPLC) ([2]; ambient light): no change to purity; change to form after 1 week stability test (XRPD) ([2]; ambient light): no change to form; solubility thermodynamic at 24 h ([3]; aqueous buffer, pH 4.5 buffer): 12.7 mg/mL; thermodynamic solubility (in words) ([3]; pH 1): highly soluble; solids recovered after thermodynamic solubility study (XRPD) ([3]; pH 4.5): an unknown form; thermodynamic solubility (in words) ([3]; pH 4.5): moderately soluble; solids recovered after thermodynamic solubility study (XRPD) ([3]; pH 6.8): poorly crystalline free base; thermodynamic solubility (in words) ([3]; pH 6.8): low solubility; solubility thermodynamic at 24 h [3, 10]: 1.9 mg/mL; solubility thermodynamic at 24 h [3, 11]: 30.8 mg/mL; solubility thermodynamic at 24 h ([3]; un-buffered water): 17.9 mg/mL; solids recovered after thermodynamic solubility study (XRPD) ([3]; un-buffered water): poorly crystalline free base; thermodynamic solubility (in words) ([3]; un-buffered water): moderately soluble; changes to form or crystallinity after stability conditions (XRPD) ([4]; salt recovered from TBME): preferred orientation but no changes to form; changes to form or crystallinity after stability conditions (XRPD) ([4]; salt recovered from THF): an increase to crystallinity but no changes to form; changes to form or crystallinity after stability conditions (XRPD) ([4]; salt recovered from ethanol): a decrease in crystallinity; material recovered after salt disproportionation study (XRPD) [5]: poorly crystalline free base; hygroscopicity by DVS (in words) [6]: low hygroscopicity; change in crystalline form after exposure to DVS conditions (post-DVS XRPD) [6]: no changes in crystalline form; mass uptake (DVS) [6]: about 0.7%

What does the source list for `C[C@@H]1CCc2ncc(F)cc2[C@H]2CCCN2c2ccn3ncc(c3n2)C(=O)N1.O=C(O)CC(O)(CC(=O)O)C(=O)O` [Compound 1 citrate]?
solid recovered from hydration screen (XRPD) [1, 8]: poorly crystalline citrate salt; solid recovered from hydration screen (XRPD) [1, 9]: poorly crystalline citrate salt; solid recovered from hydration screen (XRPD) [1, 12]: unknown form, referred to here as Form B; change in purity after 1 week stability test (UPLC) ([2]; 40° C./75% RH): no change to purity; change to form after 1 week stability test (XRPD) ([2]; 40° C./75% RH): no change to form; change in purity after 1 week stability test (UPLC) ([2]; 80° C.): no change to purity; change to form after 1 week stability test (XRPD) ([2]; 80° C.): no change to form; change in purity after 1 week stability test (UPLC) ([2]; ambient light): no change to purity; change to form after 1 week stability test (XRPD) ([2]; ambient light): no change to form; solubility thermodynamic at 24 h ([3]; aqueous buffer, pH 4.5 buffer): 0.3 mg/mL; solids recovered after thermodynamic solubility study (XRPD) ([3]; pH 1): poorly crystalline solids; thermodynamic solubility (in words) ([3]; pH 1): high solubility; solids recovered after thermodynamic solubility study (XRPD) ([3]; pH 4.5): Compound 1 citrate; thermodynamic solubility (in words) ([3]; pH 4.5): lower solubility; solids recovered after thermodynamic solubility study (XRPD) ([3]; pH 6.8): poorly crystalline free base; thermodynamic solubility (in words) ([3]; pH 6.8): lower solubility; solubility thermodynamic at 24 h [3, 10]: 0.9 mg/mL; solubility thermodynamic at 24 h [3, 11]: 18.6 mg/mL; solubility thermodynamic at 24 h ([3]; un-buffered water): 21 mg/mL; solids recovered after thermodynamic solubility study (XRPD) ([3]; un-buffered water): Compound 1 citrate; thermodynamic solubility (in words) ([3]; un-buffered water): highly soluble; changes to form or crystallinity after stability conditions (XRPD) ([4]; salt recovered from TBME): a decrease to crystallinity but no change to form; changes to form or crystallinity after stability conditions (XRPD) ([4]; salt recovered from acetone): a decrease to crystallinity but no change to form; material recovered after salt disproportionation study (XRPD) [5]: poorly crystalline citrate salt; hygroscopicity by DVS (in words) [6]: low hygroscopicity; change in crystalline form after exposure to DVS conditions (post-DVS XRPD) [6]: no changes in crystalline form; mass uptake (DVS) [6]: around 1.8%

With `CS(=O)(=O)O.C[C@@H]1CCc2ncc(F)cc2[C@H]2CCCN2c2ccn3ncc(c3n2)C(=O)N1` [Compound 1 mesylate] as the compound, how does the “solid recovered from hydration screen (XRPD)” value (from here on “solid recovered”) [1, 8] read?
The value was “free base”.

What about the “solid recovered” value [1, 9] of the same compound?
The value was “a mixture of free base and salt”.

What about the “solid recovered” value [1, 12] of the same compound?
Its value is “mesylate salt”.

And the “change in purity after 1 week stability test (UPLC)” value (from here on “change in purity”) ([2]; 40° C./75% RH)?
Its value is “no change to purity”.

And the “change in purity” value ([2]; 80° C.)?
Its value is “no change to purity”.

What about the “change in purity” value ([2]; ambient light) of the same compound?
The value was “no change to purity”.

And the solubility thermodynamic at 24 h ([3]; aqueous buffer, pH 4.5 buffer)?
The solubility thermodynamic at 24 h was 9.3 mg/mL.

What about the “thermodynamic solubility (in words)” value ([3]; pH 1) of the same compound?
Its value is “moderately soluble”.

What about the “solids recovered after thermodynamic solubility study (XRPD)” value (shortened to “solids recovered”) ([3]; pH 4.5) of the same compound?
The value was “mesylate salt”.

What about the “thermodynamic solubility (in words)” value ([3]; pH 4.5) of the same compound?
Its value is “moderately soluble”.

What about the “solids recovered” value ([3]; pH 6.8) of the same compound?
The value was “free base”.

And the “thermodynamic solubility (in words)” value ([3]; pH 6.8)?
The value was “low solubility”.

And the solubility thermodynamic at 24 h [3, 10]?
The solubility thermodynamic at 24 h was 1.5 mg/mL.

And the solubility thermodynamic at 24 h [3, 11]?
Its solubility thermodynamic at 24 h is 14.3 mg/mL.

And the solubility thermodynamic at 24 h ([3]; un-buffered water)?
The solubility thermodynamic at 24 h was 9.6 mg/mL.

What about the “solids recovered” value ([3]; un-buffered water) of the same compound?
Its value is “free base”.

And the “thermodynamic solubility (in words)” value ([3]; un-buffered water)?
The value was “moderately soluble”.

And the “changes to form or crystallinity after stability conditions (XRPD)” value (from here on “changes to form or crystallinity”) ([4]; salt recovered from acetone)?
The value was “no changes to crystallinity or form”.

And the “changes to form or crystallinity” value ([4]; salt recovered from isopropanol)?
The value was “a slight increase in crystallinity but no changes to form”.

What about the “changes to form or crystallinity” value ([4]; salt recovered from methanol) of the same compound?
Its value is “a decrease in crystallinity but no changes to form”.

And the “RH at which the material deliquesced (GVS)” value ([7]; GVS humidity conditions)?
The value was 30 % RH.

And the “hygroscopicity by GVS (in words)” value ([7]; GVS humidity conditions)?
The value was “high hygroscopicity”.

And the “change in crystalline form after exposure to GVS conditions (post-GVS XRPD)” value ([7]; after GVS cycle)?
Its value is “desolvate and become the mesylate form seen in the salt screen”.

And the “mass uptake (GVS)” value ([7]; at 90% RH)?
The value was “about 32%”.

What about the “material recovered after salt disproportionation study (XRPD)” value [5] of the same compound?
Its value is “no change to form by XRPD analysis but crystallinity reduced”.

From patent US20190247398A1, “FORMULATIONS OF A MACROCYCLIC TRK KINASE INHIBITOR” (Array BioPharma Inc., priority 2017, published 2019)
